{"source": "patent US20250206732A1", "about": "“COMPOUNDS AND METHODS FOR THE TARGETED DEGRADATION OF KRAS” (Arvinas Operations, Inc., priority 2022, published 2025)", "molecular_target": "T1, AsPC-1 HiBiT-KRASG12D (Homo sapiens, UniProt P01116, G12D)", "T1 construct": "insert the HiBiT tag onto the N-terminus of one or more of the endogenous KRAS alleles; endogenous in cells; host or cells: AsPC-1 (ATCC CRL-1682), CRISPR-Cas9 knock-in clone, one tagged allele", "T1 sequence (P01116 1-188 isoform P01116-2 G12D)": "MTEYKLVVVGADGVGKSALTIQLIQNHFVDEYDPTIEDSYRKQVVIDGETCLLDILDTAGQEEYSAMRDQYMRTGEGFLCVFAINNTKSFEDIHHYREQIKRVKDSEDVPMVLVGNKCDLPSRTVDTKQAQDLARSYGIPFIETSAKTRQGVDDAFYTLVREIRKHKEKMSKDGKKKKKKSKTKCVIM", "experiment": "HiBiT degradation assay (G12D), AsPC-1 HiBiT-KRASG12D cells", "type": "cell-based", "conditions": "24 hours treatment; for Dmax: ASPC1, AsPC-1 HiBiT-KRASG12D cells, maximum degradation observed; for DC50: AsPC-1 HiBiT-KRASG12D cells, HiBiT luminescence", "in_short": "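AsPC-1 cells (homozygous G12D) carrying a CRISPR knock-in N-terminal HiBiT tag on endogenous KRAS were treated with compounds for 24 hours at 37° C, 5% CO2, in triplicate. Alamar blue viability was read first, then cells were washed and lysed with Nano-Glo HiBiT reagent for 45 minutes before luminescence reading.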"}
{"smiles": "CCc1cccc2cc(O)cc(-c3ncc4c(N5CC6CCC(C5)N6)nc(OCCN5CC[C@@H]6[C@@H](CCN6c6cc([C@@H](C(=O)N7C[C@H](O)C[C@H]7C(=O)N[C@@H](C)c7ccc(-c8scnc8C)cc7)C(C)C)on6)C5)nc4c3F)c12", "note": "(relative stereo) [Compound 76, (2S,4R)-1-[(2R*)-2-{3-[(3aR**,7aR***)-5-{2-[(4-{3,8-diazabicyclo[3.2.1]octan-3-yl}-7-(8-ethyl-3-hydroxynaphthalen-1-yl)-8-fluoropyrido[4,3-d]pyrimidin-2-yl)oxy]ethyl}-octahydro-1H-pyrrolo[3,2-c]pyridin-1-yl]-1,2-oxazol-5-yl}-3-methylbutanoyl]-4-hydroxy-N-[(1S)-1-[4-(4-methyl-1,3-thiazol-5-yl)phenyl]ethyl]pyrrolidine-2-carboxamide]", "values": [{"measurement": "Dmax", "result": "20 to 60", "unit": "%"}, {"measurement": "DC50", "result": "1000 to 3000", "unit": "nM"}]}
{"smiles": "CCc1cccc2cc(O)cc(-c3ncc4c(N5CC6CCC(C5)N6)nc(OCCN5CC[C@H]6[C@H](CCN6c6cc([C@H](C(=O)N7C[C@H](O)C[C@H]7C(=O)N[C@@H](C)c7ccc(-c8scnc8C)cc7)C(C)C)on6)C5)nc4c3F)c12", "note": "(relative stereo) [Compound 73, (2S,4R)-1-[(2R*)-2-{3-[(3aR**,7aR***)-5-{2-[(4-{3,8-diazabicyclo[3.2.1]octan-3-yl}-7-(8-ethyl-3-hydroxynaphthalen-1-yl)-8-fluoropyrido[4,3-d]pyrimidin-2-yl)oxy]ethyl}-octahydro-1H-pyrrolo[3,2-c]pyridin-1-yl]-1,2-oxazol-5-yl}-3-methylbutanoyl]-4-hydroxy-N-[(1S)-1-[4-(4-methyl-1,3-thiazol-5-yl)phenyl]ethyl]pyrrolidine-2-carboxamide]", "values": [{"measurement": "Dmax", "result": "80 to 100", "unit": "%"}, {"measurement": "DC50", "result": "< 600", "unit": "nM"}]}
{"smiles": "C#Cc1c(F)ccc2cccc(-c3ncc4c(N5CC6CCC(C5)N6)nc(OC[C@@]56CCCN5[C@H](COc5cc([C@H](C(=O)N7C[C@H](O)C[C@H]7C(=O)N[C@@H](C)c7ccc(-c8scnc8C)cc7)C(C)C)on5)CC6)nc4c3F)c12", "note": "[Compound 52, (2S,4R)-1-[(2R)-2-(3-{[(3S,7aS)-7a-{[(4-{3,8-diazabicyclo[3.2.1]octan-3-yl}-7-(8-ethynyl-7-fluoronaphthalen-1-yl)-8-fluoropyrido[4,3-d]pyrimidin-2-yl)oxy]methyl}-hexahydro-1H-pyrrolizin-3-yl]methoxy}-1,2-oxazol-5-yl)-3-methylbutanoyl]-4-hydroxy-N-[(1S)-1-[4-(4-methyl-1,3-thiazol-5-yl)phenyl]ethyl]pyrrolidine-2-carboxamide]", "values": [{"measurement": "Dmax", "result": "80 to 100", "unit": "%"}, {"measurement": "DC50", "result": "< 600", "unit": "nM"}]}
{"smiles": "CCc1cccc2cc(O)cc(-c3ncc4c(N5CC6CCC(C5)N6)nc(OC[C@@]56CCCN5[C@H](COC(=O)N5CC(Oc7cc([C@H](C(=O)N8C[C@H](O)C[C@H]8C(=O)N[C@@H](C)c8ccc(-c9scnc9C)cc8)C(C)C)on7)C5)CC6)nc4c3F)c12", "note": "[Compound 126, [(3S,7aS)-7a-{[(4-{3,8-diazabicyclo[3.2.1]octan-3-yl}-7-(8-ethyl-3-hydroxynaphthalen-1-yl)-8-fluoropyrido[4,3-d]pyrimidin-2-yl)oxy]methyl}-hexahydro-1H-pyrrolizin-3-yl]methyl 3-({5-[(2R)-1-[(2S,4R)-4-hydroxy-2-{[(1S)-1-[4-(4-methyl-1,3-thiazol-5-yl)phenyl]ethyl]carbamoyl}pyrrolidin-1-yl]-3-methyl-1-oxobutan-2-yl]-1,2-oxazol-3-yl}oxy)azetidine-1-carboxylate]", "values": [{"measurement": "Dmax", "result": "80 to 100", "unit": "%"}, {"measurement": "DC50", "result": "< 600", "unit": "nM"}]}
{"smiles": "CCc1cccc2cc(O)cc(-c3ncc4c(N5CC6CCC(C5)N6)nc(OCCN5CCC(CN6CCN(c7cc([C@H](C(=O)N8C[C@H](O)C[C@H]8C(=O)N[C@@H](C)c8ccc(-c9ccnn9C)cc8)C(C)C)on7)CC6)CC5)nc4c3F)c12", "note": "[Compound 191, (2S,4R)-1-[(2R)-2-(3-{4-[(1-{2-[(4-{3,8-diazabicyclo[3.2.1]octan-3-yl}-7-(8-ethyl-3-hydroxynaphthalen-1-yl)-8-fluoropyrido[4,3-d]pyrimidin-2-yl)oxy]ethyl}piperidin-4-yl)methyl]piperazin-1-yl}-1,2-oxazol-5-yl)-3-methylbutanoyl]-4-hydroxy-N-[(1S)-1-[4-(1-methyl-1H-pyrazol-5-yl)phenyl]ethyl]pyrrolidine-2-carboxamide]", "values": [{"measurement": "Dmax", "result": "80 to 100", "unit": "%"}, {"measurement": "DC50", "result": "< 600", "unit": "nM"}]}
{"smiles": "CCc1cccc2cc(O)cc(-c3ncc4c(N5CC6CCC(C5)N6)nc(OC[C@H]5CN(CC6CN(c7cc([C@H](C(=O)N8C[C@H](O)C[C@H]8C(=O)N[C@@H](C)c8ccc(-c9scnc9C)cc8)C(C)C)on7)C6)CCN5C)nc4c3F)c12", "note": "[Compound 162, (2S,4R)-1-[(2R)-2-[3-(3-{[(3R)-3-{[(4-{3,8-diazabicyclo[3.2.1]octan-3-yl}-7-(8-ethyl-3-hydroxynaphthalen-1-yl)-8-fluoropyrido[4,3-d]pyrimidin-2-yl)oxy]methyl}-4-methylpiperazin-1-yl]methyl}azetidin-1-yl)-1,2-oxazol-5-yl]-3-methylbutanoyl]-4-hydroxy-N-[(1S)-1-[4-(4-methyl-1,3-thiazol-5-yl)phenyl]ethyl]pyrrolidine-2-carboxamide]", "values": [{"measurement": "Dmax", "result": "20 to 60", "unit": "%"}, {"measurement": "DC50", "result": "< 600", "unit": "nM"}]}
{"smiles": "CCc1cccc2cc(O)cc(-c3ncc4c(N5CC6CCC(C5)N6)nc(OC[C@@]56CCCN5[C@H](COC(=O)N5CCN(c7cc([C@H](C(=O)N8C[C@H](O)C[C@H]8C(=O)N[C@@H](C)c8ccc(-c9scnc9C)cc8)C(C)C)on7)[C@H](C)C5)CC6)nc4c3F)c12", "note": "[Compound 327, [(3S,8S)-8-[[4-(3,8-diazabicyclo[3.2.1]octan-3-yl)-7-(8-ethyl-3-hydroxy-1-naphthyl)-8-fluoro-pyrido[4,3-d]pyrimidin-2-yl]oxymethyl]-1,2,3,5,6,7-hexahydropyrrolizin-3-yl]methyl (3R)-4-[5-[(1R)-1-[(2S,4R)-4-hydroxy-2-[[(1S)-1-[4-(4-methylthiazol-5-yl)phenyl]ethyl]carbamoyl]pyrrolidine-1-carbonyl]-isobutyl]isoxazol-3-yl]-3-methyl-piperazine-1-carboxylate]", "values": [{"measurement": "Dmax", "result": "80 to 100", "unit": "%"}, {"measurement": "DC50", "result": "< 600", "unit": "nM"}]}
{"smiles": "CCc1cccc2cc(O)cc(-c3ncc4c(N5CC6CCC(C5)N6)nc(OC[C@]56CCCN5[C@H](COC(=O)N5CCN(c7cc(C(C(=O)N8C[C@H](O)C[C@H]8C(=O)N[C@@H](C)c8ccc(-c9scnc9C)cc8)C(C)C)on7)CC5)CC6)nc4c3F)c12", "note": "(single isomer, unassigned) [Compound 109, [(3S,7aR)-7a-{[(4-{3,8-diazabicyclo[3.2.1]octan-3-yl}-7-(8-ethyl-3-hydroxynaphthalen-1-yl)-8-fluoropyrido[4,3-d]pyrimidin-2-yl)oxy]methyl}-hexahydro-1H-pyrrolizin-3-yl]methyl 4-{5-[(2R*)-1-[(2S,4R)-4-hydroxy-2-{[(1S)-1-[4-(4-methyl-1,3-thiazol-5-yl)phenyl]ethyl]carbamoyl}pyrrolidin-1-yl]-3-methyl-1-oxobutan-2-yl]-1,2-oxazol-3-yl}piperazine-1-carboxylate]", "values": [{"measurement": "Dmax", "result": "80 to 100", "unit": "%"}, {"measurement": "DC50", "result": "< 600", "unit": "nM"}]}
{"smiles": "CCc1cccc2cc(O)cc(-c3ncc4c(N5CCCCCC5)nc(OC[C@@H]5CC[C@@H](COC(=O)N6CC(Oc7cc([C@H](C(=O)N8C[C@H](O)C[C@H]8C(=O)N[C@@H](C)c8ccc(-c9scnc9C)cc8)C(C)C)on7)C6)N5C)nc4c3F)c12", "note": "[Compound 241]", "values": [{"measurement": "Dmax", "result": "60 to 80", "unit": "%"}, {"measurement": "DC50", "result": "< 600", "unit": "nM"}]}
{"smiles": "CCc1cccc2cc(O)cc(-c3ncc4c(N5CC6CCC(C5)N6)nc(OCCN5CC(CC6CCN(c7cc([C@H](C(=O)N8C[C@H](O)C[C@H]8C(=O)N[C@@H](C)c8ccc(-c9scnc9C)cc8)C(C)C)on7)CC6)C5)nc4c3F)c12", "note": "[Compound 233]", "values": [{"measurement": "Dmax", "result": "80 to 100", "unit": "%"}, {"measurement": "DC50", "result": "< 600", "unit": "nM"}]}
{"smiles": "C#Cc1c(F)ccc2cc(O)cc(-c3ncc4c(N5CC6CCC(C5)N6)nc(OC[C@@]56CCCN5[C@H](COC(=O)N5CCN(c7cc([C@H](C(=O)N8C[C@H](O)C[C@H]8C(=O)N[C@@H](C)c8ccc(-c9scnc9C)cc8)C(C)C)on7)CC5)CC6)nc4c3F)c12", "note": "[Compound 58, [(3S,7aS)-7a-{[(4-{3,8-diazabicyclo[3.2.1]octan-3-yl}-7-(8-ethynyl-7-fluoro-3-hydroxynaphthalen-1-yl)-8-fluoropyrido[4,3-d]pyrimidin-2-yl)oxy]methyl}-hexahydro-1H-pyrrolizin-3-yl]methyl 4-{5-[(2R)-1-[(2S,4R)-4-hydroxy-2-{[(1S)-1-[4-(4-methyl-1,3-thiazol-5-yl)phenyl]ethyl]carbamoyl}pyrrolidin-1-yl]-3-methyl-1-oxobutan-2-yl]-1,2-oxazol-3-yl}piperazine-1-carboxylate]", "values": [{"measurement": "Dmax", "result": "80 to 100", "unit": "%"}, {"measurement": "DC50", "result": "< 600", "unit": "nM"}]}
{"smiles": "CCc1cccc2cc(O)cc(-c3ncc4c(N5CC6CCC(C5)N6)nc(OCCN5CCC6(CC5)CN(c5cc([C@H](C(=O)N7C[C@H](O)C[C@H]7C(=O)NCc7ccc(-c8scnc8C)cc7)C(C)C)on5)C6)nc4c3F)c12", "note": "(relative stereo) [Compound 98, (2S,4R)-1-[(2R*)-2-[3-(7-{2-[(4-{3,8-diazabicyclo[3.2.1]octan-3-yl}-7-(8-ethyl-3-hydroxynaphthalen-1-yl)-8-fluoropyrido[4,3-d]pyrimidin-2-yl)oxy]ethyl}-2,7-diazaspiro[3.5]nonan-2-yl)-1,2-oxazol-5-yl]-3-methylbutanoyl]-4-hydroxy-N-{[4-(4-methyl-1,3-thiazol-5-yl)phenyl]methyl}pyrrolidine-2-carboxamide]", "values": [{"measurement": "Dmax", "result": "80 to 100", "unit": "%"}, {"measurement": "DC50", "result": "< 600", "unit": "nM"}]}
